Reference: US10316038B2, “Pyrrolopyrimidine ITK inhibitors for treating inflammation and cancer” (ACLARIS THERAPEUTICS, INC., priority 2017, dated 2019)
Read-outs that look alike come from different tables or passages of the source.

How the values were obtained:
[1] = target: T1, ITK (Homo sapiens, UniProt Q08881); experiment: ITK inhibitor binding potency (LanthaScreen competitive binding assay); settings: TR-FRET competitive binding, 10 nM ITK, 50 nM kinase tracer-236; pre-incubation condition not given; read-out: ITK Inhibition IC50
T1 sequence (Q08881 1-620): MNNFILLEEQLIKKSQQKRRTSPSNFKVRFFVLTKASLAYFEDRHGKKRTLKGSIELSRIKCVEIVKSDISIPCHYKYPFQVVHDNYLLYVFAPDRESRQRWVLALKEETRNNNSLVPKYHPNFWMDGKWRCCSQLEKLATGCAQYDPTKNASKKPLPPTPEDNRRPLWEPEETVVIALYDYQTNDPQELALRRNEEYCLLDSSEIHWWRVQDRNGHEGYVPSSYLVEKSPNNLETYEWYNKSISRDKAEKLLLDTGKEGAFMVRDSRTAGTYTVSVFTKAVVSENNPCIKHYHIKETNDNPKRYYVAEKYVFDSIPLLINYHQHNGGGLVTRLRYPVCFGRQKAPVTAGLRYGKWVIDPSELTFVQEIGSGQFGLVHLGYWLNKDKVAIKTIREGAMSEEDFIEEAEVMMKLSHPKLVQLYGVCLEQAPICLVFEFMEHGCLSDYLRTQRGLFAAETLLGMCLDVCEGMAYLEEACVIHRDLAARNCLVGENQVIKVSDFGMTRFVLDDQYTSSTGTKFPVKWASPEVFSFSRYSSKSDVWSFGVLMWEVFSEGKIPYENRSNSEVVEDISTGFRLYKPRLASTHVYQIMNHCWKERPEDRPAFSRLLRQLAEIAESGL
Text: The ability of candidate compounds to interact with ITK is quantitated by a competitive binding assay using the LanthaScreen technology developed by Life Technologies. This assay is based on the binding of a proprietary, Alexa Fluor™ 647-labeled, ATP-competitive kinase inhibitor (kinase tracer-236) to the ITK expression construct in the presence of a Europium-conjugated antibody, resulting in a FRET (fluorescence resonance energy transfer) signal. Displacement of the kinase tracer by compound results in a lower emission ratio upon excitation of the Europium chelate. Candidate compounds are designed as potential irreversible inhibitors of ITK, capable of ligating to an active site cysteine residue resulting in time dependent covalent binding. The time dependent nature of irreversible inhibition is investigated by performing the binding assay with and without a pre-incubation of compound and ITK. […] The inhibitory potency of candidate compounds is measured in 20 mM HEPES pH 7.5, 10 mM MgCl2, 0.01% BSA, 0.0005% Tween-20, and 2% DMSO in the presence of 10 nM ITK, 2 nM Eu-anti-GST antibody, and 50 nM kinase tracer-236 using a 384-well plate format. Background signal is defined in the absence of ITK and uninhibited signal is defined in the presence of vehicle (2% DMSO) alone. Compounds were evaluated in an 11 point dose-response ranging from 20 uM to 0.34 nM. The binding assays are performed under two preincubation conditions to evaluate time dependence of inhibition. For the pre-incubation assay, ITK and Eu-anti-GST antibody are pre-incubated with compound or vehicle for two hours prior to the addition of kinase tracer. The non-preincubated assay is run under conditions where ITK and Eu-anti-GST antibody are added to a mixture of compound and kinase tracer. IC50 values of compounds are determined using a 4 parameter logistical fit of emission ratio as a function of the concentration of compound.

[2] = system: ITK phosphorylation of its substrate, PLCγ1, at Y783; experiment: ITK target modulation assay (phospho-Y783 PLCγ1 immunoblot in Jurkat T cells); assay type: cell-based; settings: 2 hours compound, CD3/CD28 Dynabeads stimulation 100 sec, anti-phospho-Y783 PLCγ1 immunoblot, read-out: PLC-γ Inhibition IC50
Description: Target modulation was based upon the ability of a compound to inhibit ITK phosphorylation of its substrate, PLCγ1, at […]. Human Jurkat T cells were placed in snap-cap polypropylene tubes at 4 million per tube in 800 μL medium (RPMI1640 with 10% heat inactivated serum and […] 2-mercaptoethanol and supplemented with glutamine/penicillin/streptomycin). Compounds were added as 100 μL of 10× working stock solutions in medium with 1% DMSO (or medium with 1% DMSO for controls) and placed in a 37° C. incubator for 2 hours. Stimulation was carried out using CD3/CD28 Dynabeads to activate the T cell receptor and mimic antigen presenting cells. Beads were added for 100 sec at a ratio of 1 bead per cell, in 100 μL medium (or medium alone for unstimulated control). Starting at 70 sec, cells and beads were pelleted in a microfuge for 15 sec, the supernatant aspirated, and 50 μL lysis buffer was added per tube and mixed with the pellet at the 100 sec time point. Tubes were placed on a rotator for 30 min at 4° C., and cell debris was pelleted in a microfuge. Supernatant was mixed 1:1 with 2× Sample Buffer and subjected to SDS-polyacrylamide gel electrophoresis. After transfer to nitrocellulose, immunoblotting was done with anti-phospho-[…] PLCγ1 antibody. Immunoblots were visualized with ECL using horseradish peroxidase conjugated secondary antibody.

IC50 [1] [nM]	IC50 ([2]; Homo sapiens, Jurkat, 2 h) [nM]	IC50 ([2]; Human Jurkat T cells) [nM]	SMILES
≤ 100	≤ 1000	–	C=CC(=O)Nc1cc(-c2cnc3[nH]cc(-c4cccc(C#N)c4)c3c2)cc(-c2cnn(C)c2)c1 [Example 18, N-(3-(3-(3-cyano-phenyl)-1H-pyrrolo[2,3-b]-pyridin-5-yl)-5-(1-methyl-1H-pyrazol-4-yl)-phenyl)acrylamide]
≤ 100	≤ 1000	–	COc1cc(NC(=O)/C=C/CN(C)C)cc(-c2cnc3[nH]cc(-c4ccnc(C#N)c4)c3c2)c1 [Example 39, (E)-N-(3-(3-(2-cyanopyridin-4-yl)-1H-pyrrolo-[2,3-b]pyridin-5-yl)-5-methoxy-phenyl)-4-(dimethylamino)-but-2-enamide]
≤ 100	≤ 1000	–	C=CC(=O)Nc1cccc(-c2cnc3[nH]cc(-c4cccc(C#N)c4)c3c2C)c1 [Example 43, N-(3-(3-(3-cyano-phenyl)-4-methyl-1H-pyrrolo[2,3-b]pyridin-5-yl)-phenyl)acrylamide]
≤ 100	≤ 1000	–	C=CC(=O)Nc1cc(-c2cnc3[nH]cc(-c4ccncn4)c3c2)cc(C(F)(F)F)c1 [Example 22, N-(3-(3-(pyrimidin-4-yl)-1H-pyrrolo-[2,3-b]pyridin-5-yl)-5-(trifluoro-methyl)phenyl)-acrylamide]
≤ 100	–	1000 to 5000	CN(C)C/C=C/C(=O)Nc1cncc(-c2cnc3[nH]cc(-c4ccnc(C#N)c4)c3c2)c1 [Example 61, (E)-N-(5-(3-(2-cyanopyridin-4-yl)-1H-pyrrolo-[2,3-b]pyridin-5-yl)pyridin-3-yl)-4-(dimethyl-amino)but-2-enamide]
≤ 100	≤ 1000	–	COc1cc(-c2c[nH]c3ncc(-c4cc(NC(=O)/C=C/CN(C)C)cc(C(F)(F)F)c4)cc23)ccn1 [Example 56, (E)-4-(dimethyl-amino)-N-(3-(3-(2-methoxy-pyridin-4-yl)-1H-pyrrolo[2,3-b]-pyridin-5-yl)-5-(trifluoromethyl)-phenyl)but-2-enamide]
≤ 100	≤ 1000	–	CN(C)C/C=C/C(=O)Nc1cncc(-c2cnc3[nH]cc(-c4ccnc(C#N)c4)c3c2)c1 [Example 4, (E)-N-(5-(3-(2-Cyanopyridin-4-yl)-1H-pyrrolo[2,3-b]pyridin-5-yl)pyridin-3-yl)-4-(dimethylamino)but-2-enamide]
≤ 100	> 5000	–	CN(C)C/C=C/C(=O)Nc1cccc(-c2cnc3[nH]cc(-c4cncc(C(N)=O)c4)c3c2)c1 [Example 10, (E)-5-(5-(3-(4-(dimethylamino)-but-2-enamido)-phenyl)-1H-pyrrolo[2,3-b]-pyridin-3-yl)-nicotinamide]
≤ 100	≤ 1000	–	CN(C)C/C=C/C(=O)Nc1cc(-c2cnc3[nH]cc(-c4ccnc5c4ccn5C)c3c2)cc(C(F)(F)F)c1 [Example 55, (E)-4-(dimethyl-amino)-N-(3-(1′-methyl-1H,1′H-[3,4′-bipyrrolo[2,3-b]pyridin]-5-yl)-5-(trifluoro-methyl)phenyl)-but-2-enamide]
≤ 100	≤ 1000	–	Cc1cc2c(-c3c[nH]c4ncc(-c5cc(NC(=O)/C=C/CN(C)C)cc(C(F)(F)F)c5)cc34)ccnc2[nH]1 [Example 14, (E)-4-(dimethyl-amino)-N-(3-(2′-methyl-1H,1′H-[3,4′-bipyrrolo-[2,3-b]pyridin]-5-yl)-5-(trifluoro-methyl)phenyl)-but-2-enamide]
≤ 100	≤ 1000	–	Cc1cc(-c2c[nH]c3ncc(-c4cc(NC(=O)/C=C/CN(C)C)cc(C(F)(F)F)c4)cc23)ccn1 [Example 33, (E)-4-(dimethyl-amino)-N-(3-(3-(2-methylpyridin-4-yl)-1H-pyrrolo-[2,3-b]-pyridin-5-yl)-5-(trifluoro-methyl)phenyl)-but-2-enamide]
≤ 100	1000 to 5000	–	COc1cc(NC(=O)/C=C/CN(C)C)cc(-c2cnc3[nH]cc(-c4ccncn4)c3c2)c1 [Example 52, (E)-4-(dimethyl-amino)-N-(3-methoxy-5-(3-(pyrimidin-4-yl)-1H-pyrrolo-[2,3-b]pyridin-5-yl)phenyl)but-2-enamide]
≤ 100	≤ 1000	–	C=CC(=O)Nc1cc(OC)cc(-c2cnc3[nH]cc(-c4ccnc(F)c4)c3c2)c1 [Example 29, N-(3-(3-(2-fluoro-pyridin-4-yl)-1H-pyrrolo[2,3-b]-pyridin-5-yl)-5-methoxyphenyl)-acrylamide]
≤ 100	1000 to 5000	–	CNc1nccc(-c2c[nH]c3ncc(-c4cc(NC(=O)/C=C/CN(C)C)cc(OC)c4)cc23)n1 [Example 46, (E)-4-(dimethyl-amino)-N-(3-methoxy-5-(3-(2-(methylamino)-pyrimidin-4-yl)-1H-pyrrolo[2,3-b]-pyridin-5-yl)-phenyl)but-2-enamide]
≤ 100	≤ 1000	–	CN(C)C/C=C/C(=O)Nc1cc(-c2cnc3[nH]cc(-c4cccc(C#N)c4)c3c2)cc(C(F)(F)F)c1 [Example 1, (E)-N-(3-(3-(3-Cyanophenyl)-1H-pyrrolo[2,3-b]pyridin-5-yl)-5-(trifluoromethyl)phenyl)-4-(dimethylamino)but-2-enamide]
≤ 100	≤ 1000	–	COc1cc(NC(=O)/C=C/CN(C)C)cc(-c2cnc3[nH]cc(-c4ccnc(C)c4)c3c2)c1 [Example 37]
–	≤ 1000	–	CN(C)C/C=C/C(=O)N(C)c1cncc(-c2cnc3[nH]cc(-c4ccnc(F)c4)c3c2)c1 [Example 74, (E)-4-(dimethyl-amino)-N-(5-(3-(2-fluoropyridin-4-yl)-1H-pyrrolo-[2,3-b]pyridin-5-yl)pyridin-3-yl)-N-methylbut-2-enamide]
≤ 100	≤ 1000	–	CN(C)C/C=C/C(=O)Nc1cc(-c2cnc3[nH]cc(-c4ccnc(F)c4)c3c2)cc(C(F)(F)F)c1 [Example 32, (E)-4-(dimethyl-amino)-N-(3-(3-(2-fluoropyridin-4-yl)-1H-pyrrolo-[2,3-b]pyridin-5-yl)-5-(trifluoro-methyl)phenyl)-but-2-enamide]
–	1000 to 5000	–	C=CC(=O)Nc1cc(C)cc(-c2cnc3[nH]cc(-c4cccc(C#N)c4)c3c2)c1 [Example 75, N-(3-(3-(3-cyano-phenyl)-1H-pyrrolo[2,3-b]-pyridin-5-yl)-5-methylphenyl)-acrylamide]
–	1000 to 5000	–	Cc1cc(NC(=O)/C=C/CN(C)C)cc(-c2cnc3[nH]cc(-c4cccc(C#N)c4)c3c2)c1 [Example 76, (E)-N-(3-(3-(3-cyanophenyl)-1H-pyrrolo[2,3-b]-pyridin-5-yl)-5-methylphenyl)-4-(dimethyl-amino)but-2-enamide]
–	≤ 1000	–	COc1cc(-c2c[nH]c3ncc(-c4cncc(N(C)C(=O)/C=C/CN(C)C)c4)cc23)ccn1 [Example 73, (E)-4-(dimethyl-amino)-N-(5-(3-(2-methoxypyridin-4-yl)-1H-pyrrolo-[2,3-b]pyridin-5-yl)pyridin-3-yl)-N-methylbut-2-enamide]
